12 compounds from patent US9822110B2, “Sulfonamide derivative and pharmaceutical use thereof” (EA Pharma Co., Ltd., priority 2013, dated 2017) can be followed below.

pIC50: −log10 of the molar value.

The target of the experiment is T1, MAdCAM-1/α4β7 integrin (Homo sapiens, UniProt P13612+P26010).
T1 construct: a human B-cell line known to express α4β7 integrin; endogenous in cells; host or cells: RPMI-8866 (human B-cell line)
T1 sequence (P13612 34-1032): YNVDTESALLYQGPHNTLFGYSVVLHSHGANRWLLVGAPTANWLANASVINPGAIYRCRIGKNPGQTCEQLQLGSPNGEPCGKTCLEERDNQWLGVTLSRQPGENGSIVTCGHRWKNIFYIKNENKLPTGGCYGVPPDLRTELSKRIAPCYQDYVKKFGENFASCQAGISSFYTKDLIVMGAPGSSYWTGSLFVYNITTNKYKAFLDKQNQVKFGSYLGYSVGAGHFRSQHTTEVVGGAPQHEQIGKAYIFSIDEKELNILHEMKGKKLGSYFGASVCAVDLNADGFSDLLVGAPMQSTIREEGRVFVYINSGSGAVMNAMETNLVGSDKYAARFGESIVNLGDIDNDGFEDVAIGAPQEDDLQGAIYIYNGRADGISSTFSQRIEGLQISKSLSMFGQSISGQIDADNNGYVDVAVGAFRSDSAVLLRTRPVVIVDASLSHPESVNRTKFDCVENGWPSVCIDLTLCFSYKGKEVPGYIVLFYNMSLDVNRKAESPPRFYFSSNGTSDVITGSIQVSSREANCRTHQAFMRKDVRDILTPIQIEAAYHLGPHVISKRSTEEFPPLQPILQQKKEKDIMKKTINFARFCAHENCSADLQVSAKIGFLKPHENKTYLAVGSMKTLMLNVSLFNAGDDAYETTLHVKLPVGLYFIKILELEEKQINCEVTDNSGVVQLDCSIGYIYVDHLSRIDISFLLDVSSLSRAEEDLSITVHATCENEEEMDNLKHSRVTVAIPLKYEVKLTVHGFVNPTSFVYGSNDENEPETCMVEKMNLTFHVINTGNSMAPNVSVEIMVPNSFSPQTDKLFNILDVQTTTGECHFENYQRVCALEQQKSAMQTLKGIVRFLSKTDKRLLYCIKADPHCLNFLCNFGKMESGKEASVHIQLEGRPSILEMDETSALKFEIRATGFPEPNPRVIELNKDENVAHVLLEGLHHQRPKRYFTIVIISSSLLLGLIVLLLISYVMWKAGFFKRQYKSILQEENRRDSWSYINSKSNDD
T1 sequence (P26010 20-798): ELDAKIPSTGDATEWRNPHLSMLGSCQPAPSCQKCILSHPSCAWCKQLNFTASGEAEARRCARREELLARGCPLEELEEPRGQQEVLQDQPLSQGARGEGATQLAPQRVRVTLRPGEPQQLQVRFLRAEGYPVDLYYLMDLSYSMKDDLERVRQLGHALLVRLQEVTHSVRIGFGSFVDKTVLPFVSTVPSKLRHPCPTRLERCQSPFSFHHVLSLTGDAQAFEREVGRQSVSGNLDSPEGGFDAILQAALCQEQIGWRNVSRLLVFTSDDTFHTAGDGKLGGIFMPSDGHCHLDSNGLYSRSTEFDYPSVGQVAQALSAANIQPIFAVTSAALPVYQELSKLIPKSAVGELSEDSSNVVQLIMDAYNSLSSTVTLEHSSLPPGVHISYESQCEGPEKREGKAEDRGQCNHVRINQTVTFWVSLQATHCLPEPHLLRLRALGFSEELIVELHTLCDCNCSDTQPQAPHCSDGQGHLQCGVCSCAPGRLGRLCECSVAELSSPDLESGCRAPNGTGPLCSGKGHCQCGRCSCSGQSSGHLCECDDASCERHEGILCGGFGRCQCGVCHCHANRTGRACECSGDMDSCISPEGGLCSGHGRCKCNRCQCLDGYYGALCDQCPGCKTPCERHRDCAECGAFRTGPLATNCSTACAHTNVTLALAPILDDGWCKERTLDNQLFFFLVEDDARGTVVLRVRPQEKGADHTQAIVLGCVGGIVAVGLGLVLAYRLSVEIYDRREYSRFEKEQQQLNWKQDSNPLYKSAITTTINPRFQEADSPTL
As to the kind of experiment: Evaluation test (1) for MAdCAM-1/α4β7 integrin binding inhibitory activity in the presence of serum (RPMI-8866 cell binding to MAdCAM-1/Fc). It counts as cell-based. Particulars: RPMI-8866 cells, recombinant mouse MAdCAM-1/Fc, human serum at final concentration of 50%; read-out: α4β7 Serum Activity rank when α4β7 serum was added. The procedure: The selectivity was determined by dividing the IC50 value in the evaluation test for VCAM-1/α4β1 integrin binding inhibitory activity by the IC50 value in the evaluation test for MAdCAM-1/α4β7 integrin binding inhibitory activity. • (3) Evaluation Test (1) for MAdCAM-1/α4β7 Integrin Binding Inhibitory Activity in the Presence of Serum
The ability of test substances to inhibit the binding of RPMI-8866 cell line, a human B-cell line known to express α4β7 integrin, to MAdCAM-1 was examined.
A 96-well microtiter plate was coated overnight at 4° C. with a recombinant mouse MAdCAM-1/Fc (R&D systems) solution diluted with the buffer A (carbonate buffer, pH 9.6). After washing once with PBS, 150 μL/well of Block Ace (manufactured by Snow Brand Milk Products Co., Ltd.) was added, and it was incubated at room temperature for 2 hours. After removal, it was washed once with PBS.
100 μL of each of test substances and RPMI-8866 cells diluted with a binding buffer solution (DMEM containing 40 mM HEPES, 0.2% BSA, and 4 mM MnCl2) to various concentrations was added to the plate coated with MAdCAM-1/Fc, so that human serum was contained at a final concentration of 50%, and it was incubated at 30° C. for 15 minutes to 60 minutes. After the cells were bound to the wells, unbound cells were removed by washing with PBS. 50 μL/well of the buffer solution C (PBS containing 1.5% Triton X-100) was added to the plate to dissolve the bound RPMI-8866 cells. 30 μL of substrate buffer (Promega, CytoTox 96 Non-Radioactive Cytotoxicity Assay) was added to 30 μL of a cell lysate to allow a reaction for 30 minutes at room temperature in a dark place. 30 μL of stop solution (Promega, CytoTox 96 Non-Radioactive Cytotoxicity Assay) was added thereto to determine the absorbance at 490 nm using a plate reader. The absorbance was obtained herein by detecting the activity of lactate dehydrogenase (LDH) eluted in a supernatant of each well, that is, the absorbance is proportional to the number of RPMI-8866 cells remaining on the plate by being bound to MAdCAM-1. The test was duplicated, and the cell binding rate at various concentrations with the absorbance of the well containing no test substance being taken as 100% was determined, to calculate the concentration IC50 at which 50% of binding was inhibited.
With `Cn1c(=O)n(-c2ccc(C[C@H](NC(=O)c3cc(F)c(NS(=O)(=O)c4ccc(-c5cnc(C6CCNCC6)nc5)cc4)cc3F)C(=O)O)nc2)c(=O)c2ccncc21` [Example 26, (2S)-2-[[2,5-Difluoro-4-[[4-[2-(4-piperidyl)pyrimidin-5-yl]phenyl]sulfonylamino]benzoyl]amino]-3-[5-(1-methyl-2,4-dioxo-pyrido[3,4-d]pyrimidin-3-yl)-2-pyridyl]propanoic acid], the pIC50 is 7.30 to 8.00.

For the compound `Cn1c(=O)n(-c2ccc(C[C@H](NC(=O)c3cc(F)c(NS(=O)(=O)c4ccc(-c5cnc(C6CCOCC6)nc5)cc4)cc3F)C(=O)O)nc2)c(=O)c2ccncc21` [Example 27, (2S)-2-[[2,5-Difluoro-4-[[4-(2-tetrahydropyran-4-ylpyrimidin-5-yl)phenyl]sulfonylamino]benzoyl]amino]-3-[5-(1-methyl-2,4-dioxo-pyrido[3,4-d]pyrimidin-3-yl)-2-pyridyl]propionic acid], the pIC50 is 6.70 to 7.30.

Turning to `COCc1ncc(-c2ccc(S(=O)(=O)Nc3cc(F)c(C(=O)N[C@@H](Cc4ccc(-n5c(=O)c6ccncc6n(C)c5=O)cn4)C(=O)O)cc3F)cc2)cn1` [Example 28, (2S)-2-[[2,5-Difluoro-4-[[4-[2-(methoxymethyl)pyrimidin-5-yl]phenyl]sulfonylamino]benzoyl]amino]-3-[5-(1-methyl-2,4-dioxo-pyrido[3,4-d]pyrimidin-3-yl)-2-pyridyl]propanoic acid], the pIC50 is 7.30 to 8.00.

With `COCc1cn(-c2ccc(S(=O)(=O)Nc3cc(F)c(C(=O)N[C@@H](Cc4ccc(-n5c(=O)c6ccncc6n(C)c5=O)cn4)C(=O)O)cc3F)cc2)nn1` [Example 29, (2S)-2-[[2,5-Difluoro-4-[[4-[4-(methoxymethyl)triazol-1-yl]phenyl]sulfonylamino]benzoyl]amino]-3-[5-(1-methyl-2,4-dioxo-pyrido[3,4-d]pyrimidin-3-yl)-2-pyridyl]propanoic acid], the pIC50 is 6.70 to 7.30.

With `C=CCn1cc(-c2ccc(S(=O)(=O)Nc3cc(F)c(C(=O)N[C@@H](Cc4ccc(-n5c(=O)c6ccncc6n(C)c5=O)cn4)C(=O)O)cc3F)cc2)cnc1=O` [Example 30, (2S)-2-[[4-[[4-(1-Allyl-2-oxo-pyrimidin-5-yl)phenyl]sulfonylamino]-2,5-difluoro-benzoyl]amino]-3-[5-(1-methyl-2,4-dioxo-pyrido[3,4-d]pyrimidin-3-yl)-2-pyridyl]propanoic acid], the pIC50 was 7.30 to 8.00.

`CN(C)CCc1ncc(-c2ccc(S(=O)(=O)Nc3cc(F)c(C(=O)N[C@@H](Cc4ccc(-n5c(=O)c6ccncc6n(C)c5=O)cn4)C(=O)O)cc3F)cc2)cn1` [Example 33, (2S)-2-[[4-[[4-[2-(2-Dimethylaminoethyl)pyrimidin-5-yl]phenyl]sulfonylamino]-2,5-difluoro-benzoyl]amino]-3-[5-(1-methyl-2,4-dioxo-pyrido[3,4-d]pyrimidin-3-yl)-2-pyridyl]propanoic acid]: the pIC50 is 7.30 to 8.00.

With `Cn1c(=O)n(-c2ccc(C[C@H](NC(=O)c3cc(F)c(NS(=O)(=O)c4ccc(-c5ccnc(C6CCOCC6)c5)cn4)cc3F)C(=O)O)nc2)c(=O)c2ccncc21` [Example 34, (2S)-2-[[2,5-Difluoro-4-[[5-(2-tetrahydropyran-4-yl-4-pyridyl)-2-pyridyl]sulfonylamino]benzoyl]amino]-3-[5-(1-methyl-2,4-dioxo-pyrido[3,4-d]pyrimidin-3-yl)-2-pyridyl]propanoic acid], the pIC50 was 7.30 to 8.00.

On to `Cc1c(-c2ccc(C[C@H](NC(=O)c3cc(F)c(NS(=O)(=O)c4ccc(-c5cnc(N6CCC6)nc5)cc4)cc3F)C(=O)O)cc2)c(=O)n(C)c(=O)n1C` [Example 36, (2S)-2-[[4-[[4-[2-(Azetidin-1-yl)pyrimidin-5-yl]phenyl]sulfonylamino]-2,5-difluoro-benzoyl]amino]-3-[4-(1,3,4-trimethyl-2,6-dioxo-pyrimidin-5-yl)phenyl]propanoic acid], for which the pIC50 is 6.70 to 7.30.

Regarding `Cc1cn(-c2ccc(S(=O)(=O)Nc3cc(F)c(C(=O)N[C@@H](Cc4ccc(-c5c(C)n(C)c(=O)n(C)c5=O)cc4)C(=O)O)cc3F)nc2)nn1` [Example 37, (2S)-2-[[2,5-Difluoro-4-[[5-(4-methyltriazol-1-yl)-2-pyridyl]sulfonylamino]benzoyl]amino]-3-[4-(1,3,4-trimethyl-2,6-dioxo-pyrimidin-5-yl)phenyl]propanoic acid], the pIC50 is 7.30 to 8.00.

On to `Cc1c(-c2ccc(C[C@H](NC(=O)c3cc(F)c(NS(=O)(=O)c4ccco4)cc3F)C(=O)O)cc2)c(=O)n(C)c(=O)n1C` [Example 38, (2S)-2-[[2,5-Difluoro-4-(2-furylsulfonylamino)benzoyl]amino]-3-[4-(1,3,4-trimethyl-2,6-dioxo-pyrimidin-5-yl)phenyl]propanoic acid], for which the pIC50 was 7.30 to 8.00.

On to `CNCc1ccc2c(c1)c(=O)n(-c1ccc(C[C@H](NC(=O)c3cc(F)c(NS(=O)(=O)c4ccc(-c5cnc(COC)nc5)cc4)cc3F)C(=O)O)cc1)c(=O)n2C` [Example 39, (2S)-2-[[2,5-Difluoro-4-[[4-[2-(methoxymethyl)pyrimidin-5-yl]phenyl]sulfonylamino]benzoyl]amino]-3-[4-[1-methyl-6-(methylaminomethyl)-2,4-dioxo-quinazolin-3-yl]phenyl]propanoic acid], for which the pIC50 was 7.30 to 8.00.

On to `Cc1c(-c2ccc(C[C@H](NC(=O)c3cc(F)c(NS(=O)(=O)c4ccc(-c5cnc(COC(C)C)nc5)cc4)cc3F)C(=O)O)cc2)c(=O)n(C)c(=O)n1C` [Example 40, (2S)-2-[[2,5-Difluoro-4-[[4-[2-(isopropoxymethyl)pyrimidin-5-yl]phenyl]sulfonylamino]benzoyl]amino]-3-[4-(1,3,4-trimethyl-2,6-dioxo-pyrimidin-5-yl)phenyl]propanoic acid], for which the pIC50 is 6.70 to 7.30.
